Measurements as given in US11331368B2, “Angiotensin receptor agonists and uses thereof” (Monash University, priority 2017, dated 2022).
“Also recorded” adds a separate entry of the source. Where two headings read alike, the source gives them in different places. Square brackets hold non-standard residues; d marks the D form. Primed or numbered codes have the meaning given here. Ends that are not written are not given here. βIle = beta-form isoleucine; βVal″ = beta-form valine

Columns and labels:
[1] = test system: human cardiac fibroblasts; assay: Pro-fibrotic effect of Ang II in human cardiac fibroblasts; assay type: cell-based
Description: Commercially available human cardiac fibroblasts (HCF, Catalog #6300, Sciencell, Calif., USA) were grown in T75 flask maintained in an incubator at 37° C., 5% CO2. Complete media composition: M199 media (#11150-059, life technologies)+10% FBS (#10437-028, life technologies)+1% Fibroblast Growth Supplement-2 (#2382, ScienCell)+1% penicillin/streptomycin 10,000 U/ml antibiotics (#15140-122, Life Technologies). Fresh complete media was replenished every alternate day until culture reached 70% confluence in which media is replenished daily until it reached approximately 90% confluence in order to passage/subculture. To subculture, media was discarded and culture was rinsed with warm PBS. After which, culture was detached using warm 0.05% Trypsin+EDTA with gentle swirling of flask to make sure cells were not adherent to surface of flask. Trypsin was then neutralized with complete media and suspension was then transferred into a new falcon tube and centrifuged at 1000 rpm for 5 minutes. […]

[2] = molecular target: T1, human AT2R (Homo sapiens, UniProt P50052); assay: Competition radioligand binding (125I-Sar1-Ile8-AngII) in AT2R-transfected HEK-293 cells; details: for binding at AT2R (displacement of 125I-Sar1-Ile8-AngII), in words: transfected HEK-293 cells
T1 construct: expressed in transfected cells
T1 sequence (P50052 1-363): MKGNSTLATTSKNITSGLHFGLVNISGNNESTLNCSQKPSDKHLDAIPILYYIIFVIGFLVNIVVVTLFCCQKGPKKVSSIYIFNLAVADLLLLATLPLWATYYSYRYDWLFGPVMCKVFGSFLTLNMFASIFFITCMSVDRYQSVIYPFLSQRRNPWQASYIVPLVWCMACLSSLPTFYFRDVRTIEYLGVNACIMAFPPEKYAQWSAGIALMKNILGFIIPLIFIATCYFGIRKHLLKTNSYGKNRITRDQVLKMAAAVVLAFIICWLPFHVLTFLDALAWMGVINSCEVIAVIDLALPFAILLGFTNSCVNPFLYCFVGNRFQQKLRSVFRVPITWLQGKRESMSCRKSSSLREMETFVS
Description: (§3) This will lead to the generation of IC50 values that determine the relative ability of test compounds to interact with both Angiotensin receptors.
(§4) Cells were grown to approximately 80% confluence before being re-plated into 48 well plates at 1×10^5 cells/well and grown for 48 hours at 37° C. for a whole cell competition binding assay. [125I]-Sar1Ile8Ang II at 50,000 cpm, incubated for 45 minutes at 37° C., in the absence or presence of unlabeled ligands, prepared in binding buffer (DMEM, 0.1% BSA), were used in the competition assays at concentrations ranging from 1 μM to 10 μM. For each experiment, each ligand concentration was tested in duplicate or triplicate, and each experiment was repeated at least 3 separate times. […] The ability of each ligand to inhibit specific binding of [125I]-Sar1Ile8Ang II was measured on a gamma counter with all counts corrected for NSB.

[3] = molecular target: T2, human AT1R (Homo sapiens, UniProt P30556); assay: Competition radioligand binding (125I-Sar1-Ile8-AngII) in AT1R-transfected HEK-293 cells
T2 construct: expressed in transfected cells
T2 sequence (P30556 1-359): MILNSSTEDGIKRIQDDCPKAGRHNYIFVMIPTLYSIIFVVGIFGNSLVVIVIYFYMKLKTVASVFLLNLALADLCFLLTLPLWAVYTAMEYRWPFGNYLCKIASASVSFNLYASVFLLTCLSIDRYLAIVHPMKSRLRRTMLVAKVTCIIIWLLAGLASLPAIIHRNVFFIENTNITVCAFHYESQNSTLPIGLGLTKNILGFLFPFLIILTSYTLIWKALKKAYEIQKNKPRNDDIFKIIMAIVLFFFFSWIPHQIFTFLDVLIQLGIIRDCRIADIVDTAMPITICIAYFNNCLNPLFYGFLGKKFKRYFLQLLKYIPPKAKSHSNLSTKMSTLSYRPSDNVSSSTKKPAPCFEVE
Description: as §3, §4

[4] = test system: human cardiac fibroblasts; assay: TGF-β1-induced collagen production in human cardiac fibroblasts (Western blot); assay type: cell-based; details: co-treated with TGF-β1 for 3 days, increasing concentrations up to 1 μM
Description: D) Human cardiac fibroblasts (HCFs) were treated with TGFβ1 to induce a pro-fibrotic phenotype state in cell culture, exemplified by increased collagen-1 production, measured by Western blot. HCFs were treated with TGFβ1 alone, or in the presence of an AT2R agonist for 3 days, and the ability of AT2R agonists to inhibit TGFβ1-induced collagen-1 production was measured.
Commercially available human cardiac fibroblasts (HCF, Catalog #6300, Sciencell, Calif., USA) were grown in T75 flask maintained in an incubator at 37° C., 5% CO2. Complete media composition: M199 media (#11150-059, life technologies)+10% FBS (#10437-028, life technologies)+1% Fibroblast Growth Supplement-2 (#2382, ScienCell)+1% penicillin/streptomycin 10,000 U/ml antibiotics (#15140-122, Life Technologies). Fresh complete media was replenished every alternate day until culture reached 70% confluence in which media is replenished daily until it reached approximately 90% confluence in order to passage/subculture. To subculture, media was discarded and culture was rinsed with warm PBS. After which, culture was detached using warm 0.05% Trypsin+EDTA with gentle swirling of flask to make sure cells were not adherent to surface of flask. Trypsin was then neutralized with complete media and suspension was then transferred into a new falcon tube and centrifuged at 1000 rpm for 5 minutes. Supernatant was discarded and pellet of cells were resuspended with 5 ml of complete media, followed by cell counting. For subculturing/passaging, 1 million HCFs are placed into a T75 flask. For Picrosirius Red (PSR) staining or immunofluorescence experiments, 100 k cells were loaded per well in a 24 well plate lined with round coverslips. […]
Once treatment is complete, cells were washed with warm PBS and detached using Accutase (A6964, Sigma), with 5 minutes incubation at 37° C. […] The supernatant (˜20 ul) was transferred to a new tube and protein concentrations were measured using Biorad Lowry protein assay. Protein quantification of respective markers were performed via standard western blot analysis. […]

[5] = test system: mouse aortae; assay: Vasorelaxation of pre-contracted mouse aortae; details: 0.1-1000 nM, pre-contracted with U46619
From the text: FIG. 17: The selective AT2R ligands, β-Pro^7-Ang III and D-Arg^2-β-Pro^7-Ang III, are functional agonists in vasculature.

[6] = test system: male FVB/N mice on high salt diet, heart; assay: High salt (5%) diet intervention model, heart; assay type: in vivo, mouse
Description: (§1) C) In the intervention (or reversal) model, male FVB/N mice were treated with selective AT2Rs agonists after the establishment of cardiovascular disease using a high salt diet, in order to reverse cardiovascular pathologies. In some experiments, the ACE inhibitor captopril (dose) or the ARB candesartan cilexetil (dose) were given for 4 weeks in drinking water. Organs examined included heart, kidney and liver and these were compared to either untreated mice or high salt-fed mice that were treated with saline.
A high-salt diet (5% salt) model is a clinically relevant and disease-reversal model which can replicate the high salt intake by humans which is currently a growing problem in the developed countries. High salt intake induces changes in the cardiovascular system and induces remodelling and fibrosis in the heart, kidney and liver.
(§2) Mice were placed on either a normal rodent diet (0.35% NaCl) which acted as control or a high salt diet (5% sodium in food chow) for 8 weeks. After 4 weeks, mice were also treated subcutaneously (via osmotic mini-pump) with either saline or an AT2R agonist (75 pmol/kg/min subcutaneously) for 4 weeks. Mice continued to be fed a high salt diet whilst receiving these treatments.
All mice which underwent surgery were anaesthetized with Isoflurane (Isorrane) (5% induction and 2.5% maintenance) and an incision made in the midscapular region through which osmotic minipumps (Alzet model 2004, Alza Corp) were inserted for subcutaneous drug administration. The incision area was sutured with 6/0 DY silk (Dynek Pty Ltd) and antibiotic powder applied (Cicatrin, Pfizer) followed by intramuscular injection of the analgesic Cartrophen (0.1 ml of a 1.5 mg/ml stock solution; Biopharm Australia). Systolic blood pressure (SBP) was measured using non-invasive tail-cuff plethysmography apparatus (MC4000 Blood Pressure Analysis System, Hatteras Instrument Inc) before drug treatment (week 0), and then fortnightly. At the end of the 8 week treatment period mice were weighed before being killed by overdose of isoflurane inhalation and cervical dislocation.
To measure collagen deposition, frozen sections of heart, kidney or aorta (all 5 μm thickness) were air dried for 10 minutes and were brought through 3 times xylene (2 minutes each), and 3 times absolute alcohol washes before being rinsed in tap H2O for 30 seconds. Staining with an optimal concentration of picrosirius red (in this instance 0.05% picrosirius red diluted in saturated picric acid) was performed and left for an hour. Sections were then rinsed in water and differentiated in 0.01M HCl for 2 minutes, followed by dehydration via 3 times absolute alcohol washes. Then, slides were brought through 3 times xylene washes before being cover slipped according to standard histological techniques using DPX as the mounting medium. Images were taken under ×20 magnification, using bright field (Olympus, BX51) and circularized polarized light microscopy (DM IRB, Leica) while percentage of positive interstitial collagen staining per total field of view was quantified using ImageJ 1.46 software (Java, NIH), and averaged out from a total of eight views as the final percentage collagen content in a particular animal.
Immunostaining was performed on 5 μm thick transverse frozen heart sections. These sections were air dried and fixed in ice-cold acetone for approximately 15 minutes before washing with 0.01M PBS buffer (3×10 minutes). Sections were then incubated with 10% goat serum in 0.01M PBS for 30 minutes to reduce non-specific binding. If the primary antibody is raised in goat, this pre-blocked medium is substituted with 5% BSA in PBS and Triton-X. Next, blocking buffers were removed and the primary antibody to respective markers were applied overnight at room temperature based on the following dilution and origin of the antibodies: α-SMA (1:500, Abcam), Vimentin (1:500, Santa Cruz), P-IκBα (1:200, Cell Signalling), F4/80 macrophage (1:100, Serotec). […]

[7] = test system: male FVB/N mice on high salt diet, liver; assay: High salt (5%) diet intervention model, liver; assay type: in vivo, mouse; details: weeks 5-8; peptides 75 pmol/kg/min s.c.; Cand 2 mg/kg/day, captopril 3 mg/kg/day
Description: as §1, §2
Liver sections used either picrosirius red staining or Masson's trichome staining as described above. Higher concentrations of picrosirius red were often used under polarized light microscopy. The liver was removed and sectioned with half of the liver placed in 10% formalin and the rest frozen in liquid nitrogen before being stored in ˜80° C. freezer for future use. Formalin fixed, paraffin embedded livers were sectioned at thickness of 4 μm and were stained with Masson's trichrome according to standard procedures for analysis of liver fibrosis. […] Sections were re-fixed in Bouin's solution for 1 hour at 56° C. to improve staining quality then rinsed in running tap water for 5-10 minutes to remove yellow colour. Following this, sections were stained in Weigert's iron hematoxylin working solution for 10 minutes. Rinsed in running warm tap water for 10 minutes. Washed in distilled water. Stained in Biebrich scarlet-acid fuchsin solution for 10-15 minutes.
Washed in distilled water. Differentiated in phosphomolybdic-phosphotungstic acid solution for 10-15 minutes or until collagen was no longer red. Sections were transferred directly (without rinse) to aniline blue solution and stained for 5-10 minutes. Rinsed briefly in distilled water and differentiated in 1% acetic acid solution for 2-5 minutes. Washed in distilled water. […] Mounted with DPX mounting medium. Quantification of liver fibrosis was performed using images captured with the Aperio scanner (Monash Histology Platform, Monash University), with ×5 magnification. Each liver section had 5 different fields of view photographed at this magnification. Percentage of interstitial and perivascular collagen was analysed and quantified using ImageJ 1.48 software (Java, NIH), and the percentage from 5 random fields of view were averaged for final percentage of collagen for that particular animal. All analysis of collagen expression was conducted in a blinded fashion.

[8] = test system: human cardiac fibroblasts; assay: AT1R and AT2R mRNA expression in human cardiac fibroblasts (qPCR); assay type: cell-based; details: 5 ng/ml for 72 hours
Description: FIG. 2: TGF-β1 differentially affects the mRNA expression of AT1R and AT2R in human cardiac fibroblasts. Quantitative qPCR data showing that both AT1R and AT2R are expressed in human cardiac fibroblasts. TGF-β1 (5 ng/ml for 72 hours) increased AT2R mRNA expression but not AT1R mRNA expression. Quantitative values were obtained from the threshold cycle (Ct) number. Target gene expression level was normalized against beta-actin mRNA expression for each sample and data was expressed relative to the control. Data expressed as mean±sem relative to untreated HCFs; *P<0.05 versus untreated control (t-test).

[9] = molecular target: T3, human Angiotensin II Receptor Type 2 (AT2R) (human, UniProt P50052 1-363); assay: competition radioligand binding on HEK-293 cells with AT2R; competitor [125I]-Sar1Ile8Ang II
T3 construct: whole, on cells; also endogenous on human cardiac fibroblasts (functional entries); also called AT2 receptor
T3 sequence (looked up): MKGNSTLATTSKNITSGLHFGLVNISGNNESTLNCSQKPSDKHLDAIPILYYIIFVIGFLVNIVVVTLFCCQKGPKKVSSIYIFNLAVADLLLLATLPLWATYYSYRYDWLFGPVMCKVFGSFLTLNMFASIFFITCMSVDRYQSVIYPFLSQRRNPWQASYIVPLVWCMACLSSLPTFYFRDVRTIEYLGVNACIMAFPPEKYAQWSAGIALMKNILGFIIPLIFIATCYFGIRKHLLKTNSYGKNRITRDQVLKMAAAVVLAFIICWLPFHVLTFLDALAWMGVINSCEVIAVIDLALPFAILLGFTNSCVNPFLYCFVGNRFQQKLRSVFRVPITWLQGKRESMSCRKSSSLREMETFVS
Description: (§5) For each experiment, each ligand concentration was tested in duplicate or triplicate, and each experiment was repeated at least 3 separate times.

[10] = molecular target: T3, human Angiotensin II Receptor Type 2 …; assay: AT2R over AT1R, from IC50s of competition radioligand binding; reference AT1R
Description: as §5

Molecule: Ang II [reference compound]
- myofibroblast differentiation (α-SMA expression) ([1]; HCFs treated with Ang II): caused myofibroblast differentiation
- protein expression of collagen ([1]; varying concentrations for 3 days, Western blot): dose-dependent increases
- binding at AT2R (displacement of 125I-Sar1-Ile8-AngII), in words [2]: readily binds
- binding at AT1R (displacement of 125I-Sar1-Ile8-AngII), in words [3]: readily binds

Molecule: β-Val^3-Ang II: β-substituted Ang II peptide which only has ~50-fold AT2R:AT1R selectivity (DR[βVal″]YIHPF)
- TGF-β1-induced collagen production [4]: failed to inhibit

Molecule: D-Arg-Val-Tyr-Ile-His-β-Pro-Phe [D-Arg β-Pro-Ang III]
- Fold AT2R selectivity ([2]; AT2R over AT1R, Table 3): >300,000 fold
- AT2R/AT1R selectivity ratio ([2]; approximate or conservatively estimated): > 300,000 fold
- binding at AT2R (displacement of 125I-Sar1-Ile8-AngII), in words [2]: high affinity
- vasorelaxation of pre-contracted aortae [5]: concentration-dependent vasorelaxation
- myofibroblast differentiation in heart (α-SMA) ([6]; 75 pmol/kg/min s.c., weeks 5-8): fully reversed the high salt-induced myofibroblast differentiation
- cardiac fibrosis (picrosirius red) ([6]; weeks 5-8 of high salt diet, peptides 75 pmol/kg/min s.c. mini-pump, Cand 2 mg/kg/day, captopril 3 mg/kg/day in drinking water): reversed established cardiac fibrosis
- binding at AT1R (displacement of 125I-Sar1-Ile8-AngII), in words ([3]; listed as D-Arg^2-β-Pro^7-Ang III): bind poorly; also recorded: did not substantially displace
- liver fibrosis (picrosirius red, polarized light) [7]: normalised liver fibrosis
- liver steatosis (Oil Red O) [7]: significantly reduced steatosis

Molecule: TGF-β1: pro-fibrotic agent (fibrogenic cytokine) used to stimulate human cardiac fibroblasts
- AT1R mRNA expression [8]: not
- AT2R mRNA expression [8]: increased

B1: βIle-8-Ang III (peptide)
peptide: RVYIHP[βIle]-OH
notes: synthetic peptide; also called Arg-Val-Tyr-Ile-His-Pro-β-Ile
- IC50 [9]: 9.6 nM
- Fold AT2R selectivity [10]: 1040 fold
